Test results: patent US20250332293A1, “METHOD FOR MANUFACTURING BIOCOMPATIBLE NANOPARTICLES WITH A PEPTIDE CORE EXHIBITING SECOND- AND THIRD-HARMONIC SIGNAL GENERATION” (MAX-PLANCK-GESELLSCHAFT ZUR FÖRDERUNG DER WISSENSCHAFTEN E. …, priority 2016, published 2025)
Residues, ends and D or L forms follow the SMILES beside them.

Tests used:
[1] = Stability of SHG signal with regard to pH of the solvent; format: physicochemical
Protocol: The disassembly occurs within minutes (˜5 minutes) after incubation in pH 4.
Panel A: SHG signal after incubation of the nanoparticles for 72 hours in a buffer at pH 7. Same as in panel A, but at pH 6. Same as in panel A, but at pH 5. Panel D: same as in panel A, but at pH 4.
In FIG. 16a, the effect of different pH values on the SHG signal intensity are shown as a diagram. The nanoparticles were incubated at different pH values for 72 hours (n=5). Representative images showing SHG signal intensity after the nanoparticles were incubated in buffers at FIG. 16b, pH 7, FIG. 16c, pH 6, FIG. 16d, pH 5, and FIG. 16e, pH 4. Scalebar, 10 μm. Mean±s.d. n.s., not significant (Ordinary one-way ANOVA with Tukey's multiple comparisons).

[2] = Stability of SHG signal with regard to dilution; format: physicochemical; details: 10 mg/ml (versus 100 mg/ml)
Protocol: Panel A: LIVAGK peptides' SHG signal at a concentration of 100 mg/ml. Panel B: LIVAGK peptides' SHG signal at a concentration of 10 mg/ml.

[3] = target: proteinase K (Parengyodontium album, UniProt P06873); experiment: Digestion of self-assembled structures by proteinase K, SHG image time series; format: in vitro ADME; details: no polymer shell, aqueous solution with proteinase K, 0 to 60 minutes
Chain of proteinase K (P06873 106-384): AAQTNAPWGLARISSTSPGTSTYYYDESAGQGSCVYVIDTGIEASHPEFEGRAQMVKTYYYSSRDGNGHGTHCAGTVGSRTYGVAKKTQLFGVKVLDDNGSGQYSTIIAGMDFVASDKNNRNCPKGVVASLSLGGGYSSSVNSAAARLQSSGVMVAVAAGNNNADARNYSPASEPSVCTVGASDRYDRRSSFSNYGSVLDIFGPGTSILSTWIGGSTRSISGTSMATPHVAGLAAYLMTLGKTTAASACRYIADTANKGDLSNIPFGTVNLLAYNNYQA
Protocol: The digestion 201 is facilitated by a proteinase K.
The proteinase K digests the self-assembled structure into single phenylalanines.
In FIG. 6 the corresponding SHG images of a digestion 201 of self-assembled structures of triphenylalanines 41 suspended in aqueous solution with proteinase K is shown. Here, image A) has been taken at time 0 minutes, image B) at 20 minutes, C) at 40 minutes and image D) after 60 minutes after adding proteinase K to the solution.

Row | assembly state / SHG signal at pH 4 ([1]; pH 4, 100 mg/ml) | time to disassembly after incubation in pH 4 ([1]; pH 4, 100 mg/ml) [minutes] | assembly state / SHG signal at pH 7 ([1]; pH 7, 100 mg/ml) | SHG signal on dilution [2] | Molecule | SHG signal during proteinase K digestion [3]
1 | disassemble | ~5 | still assembled | no SHG signal can be observed | LIVAGK | 
2 |  |  |  |  | N[C@@H](Cc1ccccc1)C(=O)N[C@@H](Cc1ccccc1)C(=O)N[C@@H](Cc1ccccc1)C(=O)O [triphenylalanine, Phe-Phe-Phe] (H-Phe-Phe-Phe-OH; N-terminus and C-terminus assumed) | decreasing over the course of time
